This passage reports EC50 results from US12006321B2, “Substituted pyrazolo[1,5-a]pyrimidines as apelin receptor agonists” (Sanford Burnham Prebys Medical Discovery Institute, priority 2017, dated 2024).

The target of the experiment is T1, human apelin receptor (APJ, APLNR) (Homo sapiens, UniProt P35414).
T1 construct: host or cells: Chinese hamster ovary (CHO) cells, stably integrated receptor
T1 sequence (P35414 1-380): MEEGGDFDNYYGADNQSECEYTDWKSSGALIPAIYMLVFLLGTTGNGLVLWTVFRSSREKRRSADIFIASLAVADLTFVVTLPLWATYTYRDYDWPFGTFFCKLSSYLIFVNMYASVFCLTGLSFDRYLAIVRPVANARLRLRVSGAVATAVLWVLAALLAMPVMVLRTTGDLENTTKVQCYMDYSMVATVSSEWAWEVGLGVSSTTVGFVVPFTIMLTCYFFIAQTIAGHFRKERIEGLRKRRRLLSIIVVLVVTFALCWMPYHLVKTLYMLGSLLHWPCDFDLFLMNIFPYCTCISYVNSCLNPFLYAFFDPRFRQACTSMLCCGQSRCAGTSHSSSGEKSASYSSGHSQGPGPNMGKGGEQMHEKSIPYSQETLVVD
Briefly: cell-based cAMP assay (TR-FRET) in Chinese hamster ovary cells expressing the apelin receptor. Particulars: EC50 = 50% of control (apelin-13, 1 nM) response; cAMP in CHO cells, 0.5 h incubation; read-out: Potency Category. Here is the method:
This example illustrates the biological activity of various compounds tested against the APJ receptor.
Commercially available cell lines were used to screen chemical libraries to identify compounds that potently and selectively activated the human apelin receptor. The assays disclosed herein were performed using cell lines from DiscoveX, Inc.
Biological activity was determined to the cell-based assay. This assay detects activation of the receptor by reporting on intracellular cyclic adenosine monophosphate (cAMP) level. Chinese hamster ovary cells engineered to express the stably integrated human appellant receptor (APJ, AGTRL-one, APLNR), pleaded into the wells of the microtiter plate. Cells were stimulated with […] to increase intracellular cyclic AMP. Immediately following, compounds were added to the range of final concentrations 0.0-100 μM, in DMSO (not to exceed a final DMSO concentration greater than 1% v/v), and allowed to incubate with the cells for 0.5 h. At the end of the incubation, cells were lysed to stop APJ signaling and cAMP was quantified using a commercially available competitive immunoassay kit that applies homogenous time-resolved florescence energy transfer (TR-FRET). The assay is based on the competition between a europium (Eu) chelate-labeled cAMP donor tracer and cellular cAMP for binding sites on a cAMP-specific monoclonal antibody labeled with an acceptor fluorophore. When antibodies are bound to the cAMP tracer light emissions at 320 nm stimulate the energy transfer from the donor to the acceptor, which in turn emits light at 665 nm. In the presence of competitive unlabeled cAMP (derived from the activity of the receptor or forskolin-stimulated production of cAMP), the labelled cAMP tracer is dissociated from the cAMP antibody, resulting in a loss of FRET signal. The amount of light emitted by the FRET is inversely proportional to the cAMP generated by the cell/receptor system. Potency and efficacy at APJ are reported in reference to the canonical APJ receptor agonist apelin-13 when tested at 1 nM.
Compound competency is reported as the effective concentration required to effect 50% (EC 50) of the control (apelin—13, 1 nM) response in micromole are (μM) units. Compound efficacy (% response) is reported as a percentage of the maximal apein-13 response at 1 nM (control). Potencies were calculated by fitting a four-point logistic curve to concentration response consisting of at least 10 discrete data points spanning effective range of the compounds in the cell-based assay that measures cAMP. In Table 1, the Potency Categories are A, B, C and D. Category A EC50>500 nM; Category B 200<EC50<500 nM; Category C 100<EC50<200 nM; Category D<100 nM.
As for `Cc1cccc(C)c1-c1c(C)nn2c(C(C)C)cc(C(=O)C(F)(F)F)nc12` [Compound 64, 1-[3-(2,6-dimethylphenyl)-2-methyl-7-(methylethyl)(8-hydropyrazolo[1,5-a]pyrimidin-5-yl)]-2,2,2-trifluoroethan-1-one], the EC50 was > 0.5 µM.
Under `COC(=O)c1cc(Nc2ccc(C#N)cc2)n2nc(C)c(-c3c(C)cccc3C)c2n1` [Compound 138, methyl 3-(2,6-dimethylphenyl)-7-[(4-cyanophenyl)amino]-2-methyl-8-hydropyrazolo[1,5-a]pyrimidine-5-carboxylate] stands > 0.5 µM.
With `Cc1cccc(C)c1-c1c(C(=O)O)nn2c(C(C)C)cc(C(=O)O)nc12` [Compound 96, 3-(2,6-dimethylphenyl)-7-(methylethyl)-8-hydropyrazolo[1,5-a]pyrimidine-2,5-dicarboxylic acid], the EC50 is > 0.5 µM.
For `COC(=O)c1nc2c(-c3ccccc3)c(C)nn2c(C(C)C)c1C` [Compound 37, methyl 2,6-dimethyl-7-(methylethyl)-3-phenyl-8-hydropyrazolo[1,5-a]pyrimidine-5-carboxylate] the value was > 0.5 µM.
Under `Cc1cccc(C)c1-c1c(C)nn2c(C(C)C)cc(C(=O)O)nc12` [Compound 41, 3-(2,6-dimethylphenyl)-2-methyl-7-(methylethyl)-8-hydropyrazolo[1,5-a]pyrimidine-5-carboxylic acid] stands < 0.1 µM.
On to `Cc1cccc(C)c1-c1c(C)nn2c(C3=CCNCC3)cc(C(=O)O)nc12` [Compound 158, 3-(2,6-dimethylphenyl)-2-methyl-7-(4-1,2,5,6-tetrahydropyridyl)-8-hydropyrazolo[1,5-a]pyrimidine-5-carboxylic acid], for which the EC50 is > 0.5 µM.
For `CNc1cc(C(=O)O)nc2c(-c3c(C)cccc3C)c(C)nn12` [Compound 102, 3-(2,6-dimethylphenyl)-2-methyl-7-(methylamino)-8-hydropyrazolo[1,5-a]pyrimidine-5-carboxylic acid], the EC50 was > 0.5 µM.
For `CCOC(=O)c1cc(C(C)C)n2nc(C)c(-c3c(C)cccc3F)c2n1` [Compound 49, ethyl 3-(6-fluoro-2-methylphenyl)-2-methyl-7-(methylethyl)-8-hydropyrazolo[1,5-a]pyrimidine-5-carboxylate] the value was > 0.5 µM.
Regarding `COC(=O)c1cc(Nc2ccc(Cl)cc2)n2nc(C)c(-c3c(C)cccc3C)c2n1` [Compound 133, methyl 3-(2,6-dimethylphenyl)-7-[(4-chlorophenyl)amino]-2-methyl-8-hydropyrazolo[1,5-a]pyrimidine-5-carboxylate], the EC50 is > 0.5 µM.
Under `COc1ccc(-c2c(C)nn3c(C(=O)O)cc(C(C)C)nc23)cc1` [Compound 10, 3-(4-methoxyphenyl)-2-methyl-5-(methylethyl)-8-hydropyrazolo[1,5-a]pyrimidine-7-carboxylic acid] stands > 0.5 µM.
For `CCOC(=O)c1cc(C(C)C)n2nc(C)c(-c3c(F)cccc3OC)c2n1` [Compound 91, ethyl 3-(6-fluoro-2-methoxyphenyl)-2-methyl-7-(methylethyl)-8-hydropyrazolo[1,5-a]pyrimidine-5-carboxylate] the value was > 0.5 µM; for `Cc1cccc(C)c1-c1cnn2c(C(C)C)cc(C(=O)O)nc12` [Compound 53, 3-(2,6-dimethylphenyl)-7-(methylethyl)-8-hydropyrazolo[1,5-a]pyrimidine-5-carboxylic acid], > 0.5 µM.
For `COCc1nn2c(C(C)C)cc(C(=O)OC)nc2c1-c1c(C)cccc1C` [Compound 88, methyl 3-(2,6-dimethylphenyl)-2-(methoxymethyl)-7-(methylethyl)-8-hydropyrazolo[1,5-a]pyrimidine-5-carboxylate] the value was > 0.5 µM; for `COC(=O)c1cc(Nc2ccc(C(F)(F)F)cc2)n2nc(C)c(-c3c(C)cccc3C)c2n1` [Compound 136, methyl 3-(2,6-dimethylphenyl)-2-methyl-7-{[4-(trifluoromethyl)phenyl]amino}-8-hydropyrazolo[1,5-a]pyrimidine-5-carboxylate], > 0.5 µM.
For `CC(C)c1cc(C(=O)O)nc2c3c(nn12)CCCC3` [Compound 43, 4-(methylethyl)-5,7,8,9,10-pentahydro-5H-pyrimidino[1,2-b]indazole-2-carboxylic acid], the EC50 was > 0.5 µM.
For `CCOC(=O)c1cc(C(C)C)n2nc(C(=O)N(C)C)c(-c3c(C)cccc3C)c2n1` [Compound 100, ethyl 2-(N,N-dimethylcarbamoyl)-3-(2,6-dimethylphenyl)-7-(methylethyl)-8-hydropyrazolo[1,5-a]pyrimidine-5-carboxylate] the value was > 0.5 µM.
Under `Cc1cccc(C)c1-c1c(C)nn2c(C3CCCC3)cc(C(=O)O)nc12` [Compound 68, 3-(2,6-dimethylphenyl)-7-cyclopentyl-2-methyl-8-hydropyrazolo[1,5-a]pyrimidine-5-carboxylic acid] stands 0.2 to 0.5 µM.
Under `Cc1cccc(C)c1-c1c(C)nn2c(N3CCN(C)CC3)cc(C(=O)O)nc12` [Compound 106, 3-(2,6-dimethylphenyl)-2-methyl-7-(4-methylpiperazinyl)-8-hydropyrazolo[1,5-a]pyrimidine-5-carboxylic acid] stands > 0.5 µM; under `COc1cccc(F)c1-c1c(C)nn2c(C(C)C)cc(C(=O)O)nc12` [Compound 92, 3-(6-fluoro-2-methoxyphenyl)-2-methyl-7-(methylethyl)-8-hydropyrazolo[1,5-a]pyrimidine-5-carboxylic acid], > 0.5 µM.
As for `Cc1nn2c(C(C)(C)C)cc(C(=O)O)nc2c1-c1ccccc1` [Compound 2, 7-(tert-butyl)-2-methyl-3-phenyl-8-hydropyrazolo[1,5-a]pyrimidine-5-carboxylic acid], the EC50 was > 0.5 µM.
For `CCc1cc(C(=O)O)nc2c(-c3ccccc3)c(C)nn12` [Compound 34, 7-ethyl-2-methyl-3-phenyl-8-hydropyrazolo[1,5-a]pyrimidine-5-carboxylic acid] the value was > 0.5 µM; for `Cc1nn2c(C(C)C)cc(C(=O)O)nc2c1-c1c(F)cccc1C#N` [Compound 120, 3-(2-cyano-6-fluorophenyl)-2-methyl-7-(methylethyl)-8-hydropyrazolo[1,5-a]pyrimidine-5-carboxylic acid], > 0.5 µM; for `CCOC(=O)c1cc(C2CCCC2)n2nc(C)c(-c3c(C)cccc3C)c2n1` [Compound 69, ethyl 3-(2,6-dimethylphenyl)-7-cyclopentyl-2-methyl-8-hydropyrazolo[1,5-a]pyrimidine-5-carboxylate], > 0.5 µM.
Regarding `CCOC(=O)c1cc(C(C)C)n2nc(C)c(-c3c(C)cc(Cl)cc3C)c2n1` [Compound 66, ethyl 3-(4-chloro-2,6-dimethylphenyl)-2-methyl-7-(methylethyl)-8-hydropyrazolo[1,5-a]pyrimidine-5-carboxylate], the EC50 was > 0.5 µM.
Under `CCc1nn2c(C(C)C)cc(C(=O)O)nc2c1-c1c(C)cccc1C` [Compound 74, 3-(2,6-dimethylphenyl)-2-ethyl-7-(methylethyl)-8-hydropyrazolo[1,5-a]pyrimidine-5-carboxylic acid] stands > 0.5 µM; under `Cc1nn2c(C(C)C)cc(C(=O)O)nc2c1-c1ccccc1` [Compound 3, 2-methyl-7-(methylethyl)-3-phenyl-8-hydropyrazolo[1,5-a]pyrimidine-5-carboxylic acid], > 0.5 µM.
